Literature values, collected in patent US7390507B2, “Compositions and methods for the treatment of radiation burns and other traumatic skin conditions” (priority 2004, dated 2008).

What was measured:
[1] = in vivo

O=C(O)CCCCC1CCSS1 (stereo not drawn) [Alpha-Lipoic Acid]
effect on skin ageing / wrinkles [1]: some effect

NCCCNCCSP(=O)(O)O [amifostine]
dermato-cytoprotective effect (retrospective analysis): significant dermato-cytoprotective effect

O=C1O[C@H]([C@@H](O)CO)C(O)=C1O [topical Vitamin C, Vitamin C]
improvement in the results of irradiated breast tissue (human, in vivo): without improvement
